Assay results from patent publication US20120255051A1, “HERBICIDE TOLERANT PLANTS” (priority 2009, published 2012).

Test system: Brassica plants comprising mutant AHAS alleles
Assay: Field trial, pre-planting treatment (0, 10, 20, 30 g a.i./ha), two locations in Canada: ERG, EST1, EST2, PPTOX, VIG1, VIG2, VIG3 scores
Assay type: in vivo, Brassica napus
Settings: ratio >1 = positive contribution
Text: Tests were set up and conducted to asses the growth and performance of plants comprising AHAS full knock-out alleles, and to further analyze the correlation between the presence of full knockout and missense AHAS genes in Brassica plants and plant growth and herbicide tolerance of the Brassica plants in the field. To this end, the Brassica plants identified in Example 1 and 2 were backcrossed two times with an elite parent line, and subsequently selfed twice to obtain homozygous plants (BC2S2). Plants were grown as row plots in a split plot design with three replicates (main plots=herbicide treatments, subplots=genotypes) at two locations in Canada. Treatment pre-planting was carried out on the soil about two days before sowing with a dose of 0 (treatment A), 10 (treatment B), 20 (treatment C) or 30 (treatment D) g a.i./ha of thiencarbazone methyl. Herbicide tolerance was measured by scoring for different parameters. The parameter emergence (ERG) was scored at the cotyledon stage on a scale 1-9, where 1 means late emergence and 9 means early emergence. Establishment was scored 14 days after sowing (EST1) and 21 days after sowing (EST2). Scores were from 1 to 9, where 1 is the worst establishment (least plants that emerged), and 9 is the best establishment (most plants emerged). Phytotoxicity (PPTOX) was determined after establishment. Plants were evaluated on a scale of 1 to 9, where 1=completely yellowing, 5=50% of plant is yellow and 9=no yellowing. The vigor scores (see above) were determined at 1-2 leaf stage (VIG1), 7 days after VIG1 (VIG2) and 14 days after VIG1 (VIG3). The average values (Av) and standard deviations (SD) of the scores for the different parameters are represented in Table 7a-g.
Further, the contribution of the knock-out allele to herbicide tolerance conferred by the missense allele was calculated. First, the scores were corrected for a possible effect of the growth per se, independent of herbicide treatment. To this end, the scores for treatments B, C and D were divided by the scores for treatment A for the same genotype and for the same parameter (corrected herbicide tolerance scores). Next, the effect of the knock-out allele to these corrected herbicide tolerance scores obtained by the missense allele was calculated. Therefore, the corrected herbicide tolerance scores for the missense—knock-out allele combination was divided by the corrected herbicide tolerance scores for the missense allele—wild-type combination. In case the knock-out allele has no effect on herbicide tolerance conferred by the missense allele, this ratio should be 1. In case the knock-out allele positively contributes to the herbicide tolerance conferred by the missense allele, this ratio should be higher than 1. The results for the contribution of the knock-out allele to herbicide tolerance conferred by the missense allele as calculated above are shown in table 8.

[1] = Location A, treatment B 10 g a.i./ha pre-planting
[2] = Location A, treatment C 20 g a.i./ha pre-planting
[3] = Location A, treatment D 30 g a.i./ha pre-planting
[4] = Location B, treatment B 10 g a.i./ha pre-planting
[5] = Location B, treatment C 20 g a.i./ha pre-planting
[6] = Location B, treatment D 30 g a.i./ha pre-planting

In the case of `COC(=O)c1csc(C)c1S(=O)(=O)NC(=O)n1nc(OC)n(C)c1=O` [thiencarbazone-methyl, methyl 4-[(4,5-dihydro-3-methoxy-4-methyl-5-oxo-1H-1,2,4-triazol-1-yl)carbonylsulfamoyl]-5-methylthiophene-3-carboxylate], the “relative contribution of HETO112 (AHAS1 KO) to herbicide tolerance conferred by HETO111 (AHAS3 missense): VIG2” value (shortened to “relative contribution of HETO112 … VIG2”) [1] was 1.05, the “relative contribution of HETO112 (AHAS1 KO) to herbicide tolerance conferred by HETO111 (AHAS3 missense): VIG3” value (shortened to “relative contribution of HETO112 … VIG3”) [1] was 1.14 and the “relative contribution of HETO104 (AHAS3 KO) to herbicide tolerance conferred by HETO108 (AHAS1 missense): ERG” value (shortened to “relative contribution of HETO104 … ERG”) [2] was 0.77. The “relative contribution of HETO104 (AHAS3 KO) to herbicide tolerance conferred by HETO108 (AHAS1 missense): EST1” value (from here on “relative contribution of HETO104 … EST1”) [2] was 0.77, the “relative contribution of HETO104 (AHAS3 KO) to herbicide tolerance conferred by HETO108 (AHAS1 missense): EST2” value (from here on “relative contribution of HETO104 … EST2”) [2] was 0.87 and the “relative contribution of HETO104 (AHAS3 KO) to herbicide tolerance conferred by HETO108 (AHAS1 missense): PPTOX” value (from here on “relative contribution of HETO104 … PPTOX”) [2] was 1.03. For the same compound, the “relative contribution of HETO104 (AHAS3 KO) to herbicide tolerance conferred by HETO108 (AHAS1 missense): VIG1” value (shortened to “relative contribution of HETO104 … VIG1”) [2] was 0.88, the “relative contribution of HETO104 (AHAS3 KO) to herbicide tolerance conferred by HETO108 (AHAS1 missense): VIG2” value (shortened to “relative contribution of HETO104 … VIG2”) [2] was 0.90 and the “relative contribution of HETO104 (AHAS3 KO) to herbicide tolerance conferred by HETO108 (AHAS1 missense): VIG3” value (shortened to “relative contribution of HETO104 … VIG3”) [2] was 0.91. For the same compound, the “relative contribution of HETO112 (AHAS1 KO) to herbicide tolerance conferred by HETO111 (AHAS3 missense): ERG” value (shortened to “relative contribution of HETO112 … ERG”) [2] was 1.20, the “relative contribution of HETO112 (AHAS1 KO) to herbicide tolerance conferred by HETO111 (AHAS3 missense): EST1” value (from here on “relative contribution of HETO112 … EST1”) [2] was 1.19 and the “relative contribution of HETO112 (AHAS1 KO) to herbicide tolerance conferred by HETO111 (AHAS3 missense): EST2” value (from here on “relative contribution of HETO112 … EST2”) [2] was 1.19. The “relative contribution of HETO112 (AHAS1 KO) to herbicide tolerance conferred by HETO111 (AHAS3 missense): PPTOX” value (from here on “relative contribution of HETO112 … PPTOX”) [2] was 1.13, the “relative contribution of HETO112 (AHAS1 KO) to herbicide tolerance conferred by HETO111 (AHAS3 missense): VIG1” value (shortened to “relative contribution of HETO112 … VIG1”) [2] was 1.11 and the “relative contribution of HETO112 … VIG2” value [2] was 1.00. For the same compound, the “relative contribution of HETO112 … VIG3” value [2] was 1.05, the “relative contribution of HETO104 … ERG” value [3] was 1.03 and the “relative contribution of HETO104 … EST1” value [3] was 1.03. The “relative contribution of HETO104 … EST2” value [3] was 0.94, the “relative contribution of HETO104 … PPTOX” value [3] was 0.90 and the “relative contribution of HETO104 … VIG1” value [3] was 0.94. For the same compound, the “relative contribution of HETO104 … VIG2” value [3] was 0.89, the “relative contribution of HETO104 … VIG3” value [3] was 0.95 and the “relative contribution of HETO112 … ERG” value [3] was 1.28. The “relative contribution of HETO112 … EST1” value [3] was 1.36, the “relative contribution of HETO112 … EST2” value [3] was 1.18 and the “relative contribution of HETO112 … PPTOX” value [3] was 1.23. The “relative contribution of HETO112 … VIG1” value [3] was 1.18, the “relative contribution of HETO112 … VIG2” value [3] was 1.25 and the “relative contribution of HETO112 … VIG3” value [3] was 1.21. For the same compound, the “relative contribution of HETO104 … ERG” value [4] was 0.92, the “relative contribution of HETO104 … EST1” value [4] was 1.07 and the “relative contribution of HETO104 … EST2” value [4] was 0.95. The “relative contribution of HETO104 … PPTOX” value [4] was 0.78, the “relative contribution of HETO104 … VIG1” value [4] was 0.95 and the “relative contribution of HETO104 … VIG2” value [4] was 1.08. The “relative contribution of HETO104 … VIG3” value [4] was 1.19, the “relative contribution of HETO112 … ERG” value [4] was 0.99 and the “relative contribution of HETO112 … EST1” value [4] was 1.00. The “relative contribution of HETO112 … EST2” value [4] was 1.06, the “relative contribution of HETO112 … PPTOX” value [4] was 0.84 and the “relative contribution of HETO112 … VIG1” value [4] was 0.89. For the same compound, the “relative contribution of HETO112 … VIG2” value [4] was 0.95, the “relative contribution of HETO112 … VIG3” value [4] was 1.04 and the “relative contribution of HETO104 … ERG” value [5] was 1.15. For the same compound, the “relative contribution of HETO104 … EST1” value [5] was 1.07, the “relative contribution of HETO104 … EST2” value [5] was 1.02 and the “relative contribution of HETO104 … PPTOX” value [5] was 1.28. For the same compound, the “relative contribution of HETO104 … VIG1” value [5] was 1.22, the “relative contribution of HETO104 … VIG2” value [5] was 1.15 and the “relative contribution of HETO104 … VIG3” value [5] was 1.25. The “relative contribution of HETO112 … ERG” value [5] was 0.92, the “relative contribution of HETO112 … EST1” value [5] was 1.13 and the “relative contribution of HETO112 … EST2” value [5] was 1.07. For the same compound, the “relative contribution of HETO112 … PPTOX” value [5] was 0.88, the “relative contribution of HETO112 … VIG1” value [5] was 0.93 and the “relative contribution of HETO112 … VIG2” value [5] was 0.94. The “relative contribution of HETO112 … VIG3” value [5] was 0.98, the “relative contribution of HETO104 … ERG” value [6] was 0.93 and the “relative contribution of HETO104 … EST1” value [6] was 1.00.
